The results in this text go back to patent US20240027428A1, “METHOD FOR BUILDING CO-CULTURE MODEL FOR CACO-2/RAW-264.7 CELLS INDUCED BY LIPOPOLYSACCHARIDES AND APPLICATION OF CO-CULTURE MODEL” (ZHEJIANG UNIVERSITY OF TECHNOLOGY, priority 2022, published 2024).

Data set [1] concerns Caco-2 cells. The experiment in a line: Effect of an endocytosis inhibitor on uptake/transport in a co-culture model. It is filed as in vitro ADME. The settings on record: β-CD, chlorpromazine (CPZ), cytochalasin D (P>0.05). On the procedure: (§1) Cell co-culture: Caco-2 cells were inoculated onto a 6-well Transwell plate at a density of 1×10^5 cells/well. A culture medium was changed once every 1-2 days in 21 consecutive days. RAW-264.7 cells were inoculated onto a side wall of a substrate at a density of 1×10^5 cells/well, and were cultured in 5% carbon dioxide at 37° C. for 48 h, to promote obvious adhesion of the cells to the side wall of the substrate. After 48 h, the culture medium was replaced with a serum-free DMEM. It was intended to evaluate the absorption of C3G liposomes in a co-culture model.
Effect of an endocytosis inhibitor on uptake in a co-culture model: 0.2 mg/mL of a C3G and C3G NL solution was prepared with an HBSS, 0.1 ml of a sample solution was added on an AP side, 0.6 mL of an HBSS was added on a BL side, an MEM, 10 mmol/L ([…]) of β-CD,10 μg/mL of chlorpromazine, 2 μmol/L (1 μg/ml) of cytochalasin D (0.1 ml) were added and sucked out after 30 min, cells were cultured in an environment at 37° C. for 1 h, three wells were provided, a culture medium was discarded after culture, and uptake was stopped using an HBSS. The content of a sample was determined with HPLC, and Papp was calculated.

In data set [2] the test system is Caco-2 cells. The experiment in a line: CCK-8 cytotoxicity test, viability of Caco-2 cells. The class given is cell-based. The settings on record: Caco-2, 24 h, 0.2 mg/mL and below (P>0.05).
Protocol: Cytotoxicity tests: according to manufacturer's instructions, cell viability was determined with a CCK-8 (Nanjing Jiancheng Biological Engineering Research Institute, Nanjing, China). In short, Caco-2 cells were treated with [MUT] liposomes at concentrations of 0.1 mg/mL, 0.2 mg/mL, 0.3 mg/mL, and 0.4 mg/mL, incubated for 24 h, then washed with PBS once, and added with a CCK-8 solution. Incubation was performed at 37° C. for 4 h, and an optical density at 450 nm was determined. […] NL and [MUT] on the viability of Caco-2 cells were inspected with a CCK-8 method. The Caco-2 cells were inoculated onto a 96-well plate having each well of 100 μL at a density of 1×10^5 cells/mL, and 200 μL of PBS was added to a peripheral well of the 96-well plate, to provide a humidity environment. […] After incubation for 24 h, 20 μL of a CCK-8 solution was added to each well, incubation was performed in an incubator at 37° C. for 1 h, and then an optical density (OD) at a wavelength of 490 nm was detected with a microplate reader and was calculated according to the following formula: Cell viability (%)=ODtreatment well/ODcontrol well×100% where the ODtreatment well represented an optical density of cells after addition of drugs, and the ODcontrol well represented an optical density of cells in a blank control.
Data set [3] has as its system Caco-2 cells. The data set can be described thus: Effect of time on uptake in a co-culture model. The class given is in vitro ADME. Particulars: 0.2 mg/mL, 0-6 h. On the procedure: as §1
Effect of time on uptake in a co-culture model: 0.2 mg/mL of a C3G and C3G NL solution was prepared with a DMEM, 0.1 ml of a sample solution was added on an AP side, 0.6 mL of a DMEM was added on an BL side, culture was performed in an incubator at 37° C. for 1 h, 2 h, 3 h, 4 h, 5 h, and 6 h, three wells were provided at each time point, a drug-containing buffer solution was discarded after incubation, precooled PBS was added to stop cellular uptake, and cell monolayers were quickly washed for three times. […] A cell suspension was dissolved with methanol and centrifuged at 15,000 rpm for 20 min, then a supernatant was taken, and the content of C3G was determined with HPLC.

The subject of data set [4] is Caco-2 cells. The experiment in a line: Effect of concentration on transport in a co-culture model. The class given is in vitro ADME. The settings on record: at 1 h; not saturated. On the procedure:
as §1
Effect of concentration on uptake in a co-culture model: 0.02 mg/ml, 0.04 mg/ml, […], 0.08 mg/ml, and 0.1 mg/ml of C3G and C3G NL solutions were prepared, transport from an AP side to a BL side and transport from the BL side to the AP side were evaluated, 0.1 ml of a sample was added on the AP side, 0.6 ml of a sample was added on the BL side, three wells were provided, […], a culture medium was discarded after culture, and uptake was stopped using an HBSS. The content of the sample on the BL side was determined with HPLC.

Data set [5] deals with Caco-2 cells. The experiment in a line: Effect of temperature on uptake in a co-culture model. The class given is in vitro ADME. Particulars: 4° C. to 37° C. (P<0.0001). On the procedure: as §1
Effect of temperature on uptake in a co-culture model: 0.2 mg/mL of a C3G and C3G NL solution was prepared with an HBSS, 0.1 ml of a sample solution was added on an AP side, 0.6 mL of an HBSS was added on an BL side, cells were cultured in environments at 37° C. and 4° C. for 2 h, three wells were provided at each temperature, a culture medium was discarded after culture, and uptake was stopped using an HBSS. The content of a sample on the BL side was determined with HPLC.

For data set [6], the system named is inflammatory factors IL-6, IL-8, IL-1β, and TNF-α. The experiment in a line: Content of inflammatory factors in LPS-induced Caco-2/RAW-264.7 co-culture model (ELISA). It is filed as cell-based. On the procedure: as §1
Determination of the content of inflammatory factors in a co-culture model: levels of inflammatory factors IL-6, IL-8, IL-1β, and TNF-α in a supernatant of Caco-2 cells in an LPS-induced co-culture model were determined with an ELISA kit.
For orientation: In an ELISA, binding on a coated surface is turned into a signal by an enzyme label.

Data set [7] deals with Caco-2 cells. The data set can be described thus: Transport tests for Lucifer yellow across Caco-2 monolayer in Transwell. It is filed as in vitro ADME. The settings on record: 20 μg/mL Lucifer yellow, AP to BL, Caco-2 cultured 21 days. On the procedure:
Drawing of a standard curve for Lucifer yellow: 0.005 μg/mL, 0.01 μg/mL, 0.025 μg/mL, 0.05 μg/mL, 0.1 μg/mL, and 0.25 μg/mL of standard solutions for Lucifer yellow were prepared, the fluorescence intensities (an excitation wavelength: 427 nm, and an emission wavelength: 536 nm) of the standard solutions for Lucifer yellow were measured with a fluorescence spectrophotometer, and linear regression was performed with the fluorescence intensity as an ordinate and the concentration ([…]) as an abscissa. A standard curve was drawn.
Transport tests for Lucifer yellow: Caco-2 cells grew to 21 days in a Transwell, and then a culture medium was sucked and discarded. A preheated HBSS was added to both an AP side and a BL side for cleaning twice and was sucked and discarded, and then a preheated HBSS was added to perform culture under the conditions of 37° C. and 5% CO2 for 20 min. […] Under the condition of Ex=427 nm and Em=536 nm, the fluorescence intensity was measured according to a standard curve and a transport formula. A concentration and permeability coefficient of a transport solution for the Lucifer yellow CH on the BL side were calculated. […]

For `OC[C@H]1O[C@@H](Oc2cc3c(O)cc(O)cc3[o+]c2-c2ccc(O)c(O)c2)[C@H](O)[C@@H](O)[C@@H]1O` [C3G, Cyanidin-3-glucoside], the “transport amounts after addition of endocytosis inhibitor compared with blank group” value in the data set with Caco-2 cells [1] is recorded as “no significant changes”. For the same compound, the “change of cell viability compared with blank group” value in the data set on Caco-2 cells [2] is “did not change significantly”. The “time of maximum uptake amount in Caco-2 cells” value in the data set with Caco-2 cells [3] was determined as 2 h. For the same compound, in the data set on Caco-2 cells [4], the “transport amounts in Caco-2 cells with concentration” value is “increased with the increase of concentration”. The “uptake amounts in Caco-2 cells with increase of temperature” value in the data set with Caco-2 cells [5] was “increased significantly”. For the same compound, the “production of inflammatory factors after pretreatment” value in data set [6] was “reduced in a dose-dependent manner”.

Turning to Lucifer yellow, the “Papp (apparent permeability coefficient)” value with Caco-2 cells [7] turned out to be 0.0303 ×10⁻⁶ cm/s.
